Experimental findings from patent US10695314B2, “Antimicrobial composition containing 7,10-epoxyoctadeca-7,9-dienoic acid as active ingredient” (priority 2016, dated 2020) are described below.

Like-named read-outs stand apart in the source and are kept apart here.

Data set [1] has as its system MDRSA 01ST001. The data set can be described thus: Agar disk diffusion analysis, zone of inhibition (ZOI). It counts as cell-based, Staphylococcus aureus. As for the experimental part:
For synergy effect screening, a 0.1 mL aliquot of MRSA or MSSA strain (5×10^5 CFU/mL) cultured in a log-phase on TSA plates was inoculated. […] A disk including DMSO alone or 7,10-EODA alone (¼×MIC) was used as a control group. The plates were cultured under conditions of […] and 24 hours, and a synergistic effect was observed when the disk periphery including both antibiotic and 7,10-EODA was at least 5 mm in zone of inhibition (ZOI).
Specifically, in order to compare the antimicrobial activity of the 7,10-EODA or the antibiotic of the present invention against the MDRSA 01ST001 strain, the MDRSA 01ST001 strain was treated with the 7,10-EODA (E 100 μg) of the present invention, streptomycin (S, 100 μg), ampicillin (A, 100 μg), oxacillin (O, 100 μg), vancomycin (V, 100 μg), or penicillin (P, 100 μg), according to the method described in Experimental Example 5.
Specifically, the minimal inhibitory concentration (MIC) was measured according to the method of Experimental Example 4 above, and the degree of inhibition (Agar diffusion analysis) (zone of inhibition; ZOI) was measured according to the method of Experimental Example 5 above.

The test system of a further data set is E. coli ATCC 8739. Description: Checker board synergy evaluation (MIC, FICI). Format: cell-based. The following applies: Escherichia coli, ATCC8739, 24 h; strain 8739; single agent. As for the experimental part: (§1) Interactions of the selected antibiotic or 7,10-EODA of the present invention were evaluated using the checker board method (Nair et al. 2015). […] To obtain various concentrations of 7,10-EODA and antibiotic combination, a 2-fold dilution of the beta-lactam antibiotic was placed on the same plate. About 10^5 CFU/mL of microorganisms to be tested was added to the wells of each plate, and cultured for 24 hours at 37° C. without shaking. At the end of the culture period, cell growth was measured at OD600 using a spectrophotometer. Each 7,10-EODA and antibiotic combination was repeated at least three times. MIC was identified at the lowest concentration of antibiotics with growth inhibition of 90% or higher. FICAB means fractional inhibitory concentration (FIC) of drug A in the presence of drug B, and FICBA means fractional inhibitory concentration (FIC) of drug B in the presence of drug A. The fractional inhibitory concentration index (FICI) represents the sum of the FIC values of the interacting antibiotics. Interactions are based on FICI values, with FICIs less than 0.5 being categorized as synergy, FICIs 0.5 to 4 being indifferent, and FICIs greater than 4 being antagonistic. The degree of synergy was also measured based on the conventional Bliss independence model of synergy (Morones-Ramirez et al. 2013). Specifically, the degree of synergy was calculated by the following equation: S indicates degree of synergy, fAB indicates bacterial growth (optical density) when 7,10-EODA and antibiotics are used in combination, fA0 and f0B represent bacterial growth for antibiotic alone or 7,10-EODA single treatment, respectively. f00 represents bacterial growth in the absence of drug. The degree of synergy is divided into three categories based on the S value, where 0 means neutral, greater than 0 means synergism, and less than 0 means antagonism. S=(fA0/f00)(f0B/f00)−(fAB/f00)
(§2) The antimicrobial activity synergistic effects according to the combination treatment of 7,10-EODA and each antibiotic on methicillin-resistant Staphylococcus aureus (MRSA) strains 085, 093, 120, 136, and 165, MDRSA 01ST001, which is a multidrug-resistant Staphylococcus aureus (MDRSA) strain, E. coli ATCC 8739, and S. typhimurium KCTC 2515 were confirmed. […] Fractional inhibitory concentration indices (FICI) values accordingly were confirmed.

In data set [2] the test system is MDRSA 01ST001. The data set can be described thus: Checker board synergy evaluation (MIC, FICI). The conditions noted are these: Staphylococcus aureus, 24 h; strain 001; single agent. Format: cell-based. As for the experimental part:
as §1, §2

Another data set has as its system MRSA strain 085. Description: Checker board synergy evaluation (MIC, FICI). It counts as cell-based. The following applies: Staphylococcus aureus, 24 h. As for the experimental part: as §1, §2
For another data set, the system named is MRSA strain 093. Description: Checker board synergy evaluation (MIC, FICI). It counts as cell-based. The following applies: Staphylococcus aureus, 24 h. As for the experimental part:
as §1, §2

The next data set has as its system MRSA strain 120. Description: Checker board synergy evaluation (MIC, FICI). The following applies: Staphylococcus aureus, 24 h. Format: cell-based. As for the experimental part: as §1, §2
A further data set has as its system MRSA strain 136. Description: Checker board synergy evaluation (MIC, FICI). The conditions noted are these: Staphylococcus aureus, 24 h. It counts as cell-based. As for the experimental part: as §1, §2
In the next data set the test system is MRSA strain 165. The data set can be described thus: Checker board synergy evaluation (MIC, FICI). The following applies: Staphylococcus aureus, 24 h. Format: cell-based. As for the experimental part: as §1, §2
The test system of another data set is S. typhimurium KCTC 2515. Description: Checker board synergy evaluation (MIC, FICI). Format: cell-based, Salmonella typhimurium. The conditions noted are these: Salmonella enterica, 24 h; strain 2515; single agent. As for the experimental part: as §1, with “S=(fA0/f00)(f0B/f00)−(fAB/f00) […]” for “S=(fA0/f00)(f0B/f00)−(fAB/f00)”
In data set [3] the test system is MRSA 01ST001 (MDRSA 01ST001). The data set can be described thus: Antimicrobial activity on solid medium (clear zone around filter paper). It counts as cell-based, Staphylococcus aureus. As for the experimental part: (§3) First, 1.5% of potato agar was added to the YDP medium, sterilized, and then an agar plate hardened by pouring about 20 ml in a plastic Petri dish was used. MRSA 01ST001 was diluted to about 107/ml, and then about 500 μl was dispersed evenly on the agar plate.
(§4) The size of the clear zone around the filter paper shown after the culture at 37° C. for 2 to 3 days after the inoculation was measured to confirm the degree of antimicrobial activity. At this time, vancomycin 100 μg, oxacillin 100 μg, ampicillin 100 μg, streptomycin 100 μg, and penicillin 100 μg were used as control groups.
(§5) The antimicrobial activity can be confirmed with the degree showing the clear zone on the agar plate. It is judged that the larger the clear zone, the higher the antimicrobial activity. The results are illustrated in FIG. 1 and FIG. 2.
(§6) The results are illustrated in FIG. 3. The experiment was carried out in the same manner as in Example 1-2.

Data set [4] deals with Staphylococcus aureus ATCC 29213. The description is as above. The following applies: FIG. 3. Format: cell-based. As for the experimental part:
as §3, §4, §5, §6

In data set [5] the test system is MDRSA 01ST001. Description: microbe, parasite or virus in culture. Format: cell-based. The following applies: Staphylococcus aureus, 12 h. The source says:
The results are illustrated in FIG. 11.

A further data set concerns HepG2 animal cells. As for the experimental part: Simple toxicity tests were performed for the four components of 7,10-EODA, DOD, oleic acid, and DMSO. The target cells were HepG2 animal cells and the results were obtained by MTT assay.
Data set [6] has as its system MDRSA 01ST001. The conditions noted are these: 125 μg/ml.
The subject of data set [7] is MDRSA 01ST001. The data set can be described thus: microbe, parasite or virus in culture. The conditions noted are these: Staphylococcus aureus.

The MIC is the least concentration at which growth counts as inhibited. Take `CCCCCCCCc1ccc(CCCCCC(=O)O)o1` [7,10-EODA, 7,10-epoxyoctadeca-7,9-dienoic acid]: the “antimicrobial activity, disk diffusion” value in the data set with MDRSA 01ST001 [1] (100 μg each, FIG. 4) is recorded as “showed the antimicrobial activity”. The “antimicrobial activity according to concentration” value in the data set with MDRSA 01ST001 [1] (50, 100, 200 and 400 μg, FIG. 5) is recorded as “high in a concentration-dependent manner”. Further, the MIC with E. coli ATCC 8739 was 500 µg/mL; in the data set on MDRSA 01ST001 [2], 125 µg/mL; in the data set with MRSA strain 085, 125 µg/mL; with MRSA strain 093 it was 125 µg/mL; in the data set with MRSA strain 120 it was 125 µg/mL; in the data set on MRSA strain 136, 125 µg/mL. Besides, the results for the minimal inhibitory concentration (MIC) in the data set on MRSA strain 165 and in the data set on S. typhimurium KCTC 2515 were 125 µg/mL and 500 µg/mL, respectively. In addition, the “clear zone on agar plate” value in [3] (100 μg per filter paper, 37° C., 2 to 3 days, FIG. 1) is reported as “clear zone similar in size to vancoclin”. The “clear zone size with treatment concentration” value in data set [3] (50, 100, 200 and 400 μg, FIG. 2) is “improved in a concentration-dependent manner”. The “antimicrobial activity on solid medium” value is “higher antimicrobial activity than Staphylococcus aureus ATCC 29213” in [3] (MDRSA 01ST001, FIG. 3) and “antimicrobial activity was exhibited” in data set [4]. Moreover, the MIC90 in the data set with MDRSA 01ST001 [5] (read-out: MIC90 concentration) was no more than 15.6 µg/mL. Further, the inhibition at 15.6 µg/mL was greater than 90% in the data set with MDRSA 01ST001 [5] (read-out: reduction of residual viable microorganisms compared to the control) and no less than 50% in the data set with MDRSA 01ST001 [7] (4 h, read-out: decrease of residual viable microorganism concentration compared to the control). In the data set with HepG2 animal cells, the “toxicity as a whole” value is given as “not highly toxic”. Further, the “time until MDRSA 01ST001 was completely killed” value with MDRSA 01ST001 [6] is no more than 10 min. Also, the viability at 62.5 µg/mL with MDRSA 01ST001 [7] (10 min, read-out: residual viable microorganism concentration compared to the control) was less than 10%.
